Values of other authors as cited in article PMC10499419 (Clinical and Translational Science, 2023).

Test system: healthy subjects

CN1C(=O)[C@@H](NC(=O)c2nnc(Cc3ccccc3)[nH]2)COc2ccccc21 [GSK2982772]
Tolerability in healthy subjects: well‐tolerated
